Data reported in PubChem BioAssay (NCI).
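Method: 48-hour compound exposure of cells in 96-well plates, five concentrations, linear interpolation of endpoints. GI50 = concentration required for 50% inhibition of growth. TGI: concentration producing complete growth inhibition.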

Tests used:
Experiment in all cases: NCI tumour cell line growth inhibition, 48 h
[1] = test system: OVCAR-4 ovarian
[2] = test system: MDA-MB-231 breast
[3] = test system: T-47D breast
[4] = test system: SF-539 CNS
[5] = test system: LOX IMVI melanoma
[6] = test system: CCRF-CEM leukemia
[7] = test system: SK-MEL-2 melanoma
[8] = test system: NCI-H522 lung
[9] = test system: UACC-62 melanoma
[10] = test system: HS 578T breast
[11] = test system: RXF 393 renal
[12] = test system: SN12C renal
[13] = test system: SNB-75 CNS
[14] = test system: A498 renal
[15] = test system: TK-10 renal
[16] = test system: 786-0 renal
[17] = test system: HT29 colon
[18] = test system: A549 NSCLC
[19] = test system: MOLT-4 leukemia
[20] = test system: HOP-62 NSCLC
[21] = test system: SF-295 CNS
[22] = test system: MALME-3M melanoma
[23] = test system: HCC-2998 colon
[24] = test system: HCT-116 colon
[25] = test system: SK-MEL-28 melanoma
[26] = test system: EKVX NSCLC
[27] = test system: UACC-257 melanoma
[28] = test system: SW-620 colon
[29] = test system: IGROV1 ovarian
[30] = test system: ACHN renal
[31] = test system: NCI-H460 lung
[32] = test system: SK-OV-3 ovarian
[33] = test system: HOP-92 NSCLC
[34] = test system: NCI-H226 lung
[35] = test system: BT-549 breast
[36] = test system: KM12 colon
[37] = test system: OVCAR-3 ovarian
[38] = test system: SR leukemia
[39] = test system: DU-145 prostate
[40] = test system: UO-31 renal
[41] = test system: MCF7 breast
[42] = test system: SNB-19 CNS
[43] = test system: PC-3 prostate
[44] = test system: NCI-H23 lung
[45] = test system: HCT-15 colon
[46] = test system: MDA-MB-435
[47] = test system: OVCAR-8 ovarian
[48] = test system: OVCAR-5 ovarian
[49] = test system: SK-MEL-5 melanoma
[50] = test system: U251 CNS
[51] = test system: M14 melanoma
[52] = test system: SF-268 CNS

SMILES: COc1cc(-c2nn(-c3cccc(NC(=O)NCCNC(=O)c4ccccc4)c3)cc2-c2ccncc2)ccc1Cl
- GI50 [1]: 3.03 µM
- TGI [1]: > 100 µM
- GI50 [2]: 2.99 µM
- TGI [2]: > 100 µM
- GI50 [3]: 1.25 µM
- TGI [3]: 8.79 µM
- GI50 [4]: 0.859 µM
- TGI [4]: 7.44 µM
- GI50 [5]: 2.46 µM
- TGI [5]: > 100 µM
- GI50 [6]: 1.41 µM
- TGI [6]: > 100 µM
- GI50 [7]: 2.34 µM
- TGI [7]: 5.43 µM
- GI50 [8]: 1.79 µM
- TGI [8]: 7.37 µM
- GI50 [9]: 3.08 µM
- TGI [9]: 31.2 µM
- GI50 [10]: 6.29 µM
- TGI [10]: > 100 µM
- GI50 [11]: 1.94 µM
- TGI [11]: 6.42 µM
- GI50 [12]: 0.556 µM
- TGI [12]: > 100 µM
- GI50 [13]: 5.84 µM
- TGI [13]: > 100 µM
- GI50 [14]: 4.72 µM
- TGI [14]: > 100 µM
- GI50 [15]: 6.09 µM
- TGI [15]: 63.7 µM
- GI50 [16]: 1.94 µM
- TGI [16]: 5.37 µM
- GI50 [17]: 0.965 µM
- TGI [17]: 23.6 µM
- GI50 [18]: 4.57 µM
- TGI [18]: > 100 µM
- GI50 [19]: 2.18 µM
- TGI [19]: > 100 µM
- GI50 [20]: 3.95 µM
- TGI [20]: > 100 µM
- GI50 [21]: 1.63 µM
- TGI [21]: 4.57 µM
- GI50 [22]: 1.97 µM
- TGI [22]: 6.11 µM
- GI50 [23]: 5.42 µM
- TGI [23]: > 100 µM
- GI50 [24]: 0.392 µM
- TGI [24]: > 100 µM
- GI50 [25]: 3.04 µM
- TGI [25]: > 100 µM
- GI50 [26]: 3.76 µM
- TGI [26]: > 100 µM
- GI50 [27]: 3.96 µM
- TGI [27]: 21.1 µM
- GI50 [28]: 0.824 µM
- TGI [28]: > 100 µM
- GI50 [29]: 4.68 µM
- TGI [29]: > 100 µM
- GI50 [30]: 3.14 µM
- TGI [30]: > 100 µM
- GI50 [31]: 3.56 µM
- TGI [31]: > 100 µM
- GI50 [32]: 4.21 µM
- TGI [32]: > 100 µM
- GI50 [33]: 2.63 µM
- TGI [33]: > 100 µM
- GI50 [34]: 2.73 µM
- TGI [34]: 83.4 µM
- GI50 [35]: 2.21 µM
- TGI [35]: 8.05 µM
- GI50 [36]: 2.56 µM
- TGI [36]: 40.2 µM
- GI50 [37]: 2.93 µM
- TGI [37]: > 100 µM
- GI50 [38]: 2.42 µM
- TGI [38]: > 100 µM
- GI50 [39]: 4.72 µM
- TGI [39]: > 100 µM
- GI50 [40]: 2.76 µM
- TGI [40]: > 100 µM
- GI50 [41]: 2.22 µM
- TGI [41]: > 100 µM
- GI50 [42]: 4.83 µM
- TGI [42]: > 100 µM
- GI50 [43]: 2.4 µM
- TGI [43]: > 100 µM
- GI50 [44]: 3.37 µM
- TGI [44]: > 100 µM
- GI50 [45]: 1.97 µM
- TGI [45]: > 100 µM
- GI50 [46]: 2.41 µM
- TGI [46]: 9.29 µM
- GI50 [47]: 0.576 µM
- TGI [47]: 41.7 µM
- GI50 [48]: 3.78 µM
- TGI [48]: > 100 µM
- GI50 [49]: 1.55 µM
- TGI [49]: 4.06 µM
- GI50 [50]: 2.62 µM
- TGI [50]: > 100 µM
- GI50 [51]: 2.88 µM
- TGI [51]: > 100 µM
- GI50 [52]: 4.27 µM
- TGI [52]: > 100 µM
